Measurements reported in US4540688A, “β-Lactam antibiotics” (Beecham Group p.l.c., priority 1982, dated 1985).

What was measured:
Type in all cases: cell-based
[1] = test system: E. coli ESS; test: Antibacterial in vitro activity (MIC), E. coli ESS; settings: Escherichia coli
[2] = test system: E. coli JT4; test: Antibacterial in vitro activity (MIC), E. coli JT4; settings: Escherichia coli
[3] = test system: E. coli JT425; test: Antibacterial in vitro activity (MIC), E. coli JT425; settings: Escherichia coli
[4] = test system: E. coli NCTC 10418; test: Antibacterial in vitro activity (MIC), E. coli NCTC 10418; settings: Escherichia coli, NCTC10418
[5] = test system: Ps. aeruginosa NCTC 10662; test: Antibacterial in vitro activity (MIC), Ps. aeruginosa NCTC 10662; settings: Pseudomonas aeruginosa
[6] = test system: Ps. aeruginosa Dalgleish; test: Antibacterial in vitro activity (MIC), Ps. aeruginosa Dalgleish; settings: Pseudomonas aeruginosa; Ps. aeruginosa Dalgleish 10^-2
[7] = test system: S. marcesens US32; test: Antibacterial in vitro activity (MIC), S. marcesens US32
[8] = test system: K. aerogenes A; test: Antibacterial in vitro activity (MIC), K. aerogenes A; settings: Klebsiella aerogenes
[9] = test system: E. cloacae N1; test: Antibacterial in vitro activity (MIC), E. cloacae N1; settings: Enterobacter cloacae
[10] = test system: P. mirabilis C977; test: Antibacterial in vitro activity (MIC), P. mirabilis C977; settings: Proteus mirabilis
[11] = test system: P. rettgeri; test: Antibacterial in vitro activity (MIC), P. rettgeri; settings: Providencia rettgeri
[12] = test system: N. catarrhalis 1502; test: Antibacterial in vitro activity (MIC), N. catarrhalis 1502
[13] = test system: S. pyogenes CN10; test: Antibacterial in vitro activity (MIC), S. pyogenes CN10; settings: Streptococcus pyogenes

SMILES: CCN1CCN(C(=O)N[C@@H](C(=O)N[C@@H]2C(=O)N3[C@@H](C(=O)O)CS[C@H]23)c2ccc(O)c(O)c2)C(=O)C1=O [Example 3, Sodium 6,β[D-2-(4-ethyl-2,3-dioxopiperazine-1-carbonylamino)-2-(3,4-dihydroxyphenyl)]acetamidobisnorpenicillanate]
- MIC [1]: 20 µg/mL
- MIC [2]: 1000 µg/mL
- MIC [3]: 50 µg/mL
- MIC [4]: 20 µg/mL
- MIC ([5]; NCTC10662, Ps. aeruginosa NCTC 10662): 1000 µg/mL
- MIC ([5]; NCTC10662, Ps. aeruginosa NCTC 10662 10^-2): 100 µg/mL
- MIC [6]: 2500 µg/mL
- MIC [7]: 200 µg/mL
- MIC [8]: 50 µg/mL
- MIC [9]: 500 µg/mL
- MIC [10]: 100 µg/mL
- MIC [11]: 200 µg/mL
- MIC [12]: 20 µg/mL
- MIC [13]: 500 µg/mL
